From PubChem BioAssay AID2060503 (Molecular Pharmacology Branch, DTP, NCI, 2025)

Test system: 817829-284-R-J1-PDC complex spheroids, viability
Experiment: Anticancer human tumor 817829-284-R-J1-PDC patient-derived colon adenocarcinoma cell line growth inhibition [GQUAD]
Settings: for IC50: curve of first compound; for viability, T/C: stronger effect = lower value
Outline: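 Tumor cells were grown as complex spheroids with HUVEC endothelial cells and mesenchymal stem cells as stroma. G-quadruplex stabilizers were combined with targeted agents over half-log dilutions from near the clinical Cmax, or from 10 microM.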

[1] = second compound 0.0316 µM, first compound 0.0316 µM
[2] = second compound 0.0316 µM, first compound 0.316 µM
[3] = second compound 0.1 µM, first compound 0.0316 µM
[4] = second compound 0.1 µM, first compound 0.316 µM
[5] = second compound 0.316 µM, first compound 0.0316 µM
[6] = second compound 0.316 µM, first compound 0.316 µM
[7] = second compound 1 µM, first compound 0.0316 µM
[8] = second compound 1 µM, first compound 0.316 µM
[9] = second compound 3.16 µM, first compound 0.0316 µM
[10] = second compound 3.16 µM, first compound 0.316 µM
[11] = second compound 10 µM, first compound 0.0316 µM
[12] = second compound 10 µM, first compound 0.316 µM
[13] = second compound 0.0316 µM, first compound 0.1 µM
[14] = second compound 0.0316 µM, first compound 1 µM
[15] = second compound 0.0316 µM, first compound 3.16 µM
[16] = second compound 0.0316 µM, first compound 10 µM
[17] = second compound 0.1 µM, first compound 0.1 µM
[18] = second compound 0.1 µM, first compound 1 µM
[19] = second compound 0.1 µM, first compound 3.16 µM
[20] = second compound 0.1 µM, first compound 10 µM
[21] = second compound 0.316 µM, first compound 0.1 µM
[22] = second compound 0.316 µM, first compound 1 µM
[23] = second compound 0.316 µM, first compound 3.16 µM
[24] = second compound 0.316 µM, first compound 10 µM
[25] = second compound 1 µM, first compound 0.1 µM
[26] = second compound 1 µM, first compound 1 µM
[27] = second compound 1 µM, first compound 3.16 µM
[28] = second compound 1 µM, first compound 10 µM
[29] = second compound 3.16 µM, first compound 0.1 µM
[30] = second compound 3.16 µM, first compound 1 µM
[31] = second compound 3.16 µM, first compound 3.16 µM
[32] = second compound 3.16 µM, first compound 10 µM
[33] = second compound 10 µM, first compound 0.1 µM
[34] = second compound 10 µM, first compound 1 µM
[35] = second compound 10 µM, first compound 3.16 µM
[36] = second compound 10 µM, first compound 10 µM
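Further: spheroids exposed to agents for 7 days before readout.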
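Wherever viability, T/C is given: percent viability relative to DMSO vehicle control taken as 100%.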

Cn1ncnc1[C@H]1c2n[nH]c(=O)c3cc(F)cc(c23)N[C@@H]1c1ccc(F)cc1 + Cc1[nH]c2ccc(F)cc2c1-c1nc2c3cccnc3c3ncccc3c2[nH]1 showed an IC50 (second compound 0.0316 µM) of over 316 nM, an IC50 (second compound 0.1 µM) of over 316 nM and an IC50 (second compound 0.316 µM) of over 316 nM. For the same compound, the IC50 (second compound 1 µM) was over 316 nM, the IC50 (second compound 3.16 µM) was 148 nM and the IC50 (second compound 10 µM) was 79.9 nM. For the same compound, the viability, T/C (second compound 0.0316 µM, first compound 0.000999 µM) was 93.8%, the viability, T/C (second compound 0.0316 µM, first compound 0.00316 µM) was 88.8% and the viability, T/C (second compound 0.0316 µM, first compound 0.00999 µM) was 95.5%. The viability, T/C [1] was 82.2%, the viability, T/C (second compound 0.0316 µM, first compound 0.0999 µM) was 96.1% and the viability, T/C [2] was 74.7%. It also gave a viability, T/C (second compound 0.1 µM, first compound 0.000999 µM) of 93.5%, a viability, T/C (second compound 0.1 µM, first compound 0.00316 µM) of 109% and a viability, T/C (second compound 0.1 µM, first compound 0.00999 µM) of 94.5%. The viability, T/C [3] was 106%, the viability, T/C (second compound 0.1 µM, first compound 0.0999 µM) was 89.2% and the viability, T/C [4] was 76.3%. For the same compound, the viability, T/C (second compound 0.316 µM, first compound 0.000999 µM) was 83.9%, the viability, T/C (second compound 0.316 µM, first compound 0.00316 µM) was 115% and the viability, T/C (second compound 0.316 µM, first compound 0.00999 µM) was 102%. For the same compound, the viability, T/C [5] was 105%, the viability, T/C (second compound 0.316 µM, first compound 0.0999 µM) was 86.5% and the viability, T/C [6] was 69.6%. For the same compound, the viability, T/C (second compound 1 µM, first compound 0.000999 µM) was 82.6%, the viability, T/C (second compound 1 µM, first compound 0.00316 µM) was 108% and the viability, T/C (second compound 1 µM, first compound 0.00999 µM) was 116%. It also gave a viability, T/C [7] of 103%, a viability, T/C (second compound 1 µM, first compound 0.0999 µM) of 80% and a viability, T/C [8] of 68.4%. The viability, T/C (second compound 3.16 µM, first compound 0.000999 µM) was 89.1%, the viability, T/C (second compound 3.16 µM, first compound 0.00316 µM) was 90.6% and the viability, T/C (second compound 3.16 µM, first compound 0.00999 µM) was 87.5%. For the same compound, the viability, T/C [9] was 83.2%, the viability, T/C (second compound 3.16 µM, first compound 0.0999 µM) was 54.6% and the viability, T/C [10] was 41.1%. It also gave a viability, T/C (second compound 10 µM, first compound 0.000999 µM) of 69.3%, a viability, T/C (second compound 10 µM, first compound 0.00316 µM) of 73.9% and a viability, T/C (second compound 10 µM, first compound 0.00999 µM) of 76.3%. For the same compound, the viability, T/C [11] was 75.8%, the viability, T/C (second compound 10 µM, first compound 0.0999 µM) was 44.3% and the viability, T/C [12] was 24.1%.
For COc1cc(C2c3cc4c(cc3C(OC3OC5COC(C)OC5C(O)C3O)C3COC(=O)C23)OCO4)cc(OC)c1O (stereo not drawn) + Cc1cnc(CNC(=O)c2c(=O)c3ccc(N4CCCN(C)CC4)nc3n3c2sc2ccccc23)cn1, the IC50 (second compound 0.0316 µM) was 39.3 nM, the IC50 (second compound 0.1 µM) was under 31.6 nM and the IC50 (second compound 0.316 µM) was under 31.6 nM. For the same compound, the IC50 (second compound 1 µM) was under 31.6 nM, the IC50 (second compound 3.16 µM) was under 31.6 nM and the IC50 (second compound 10 µM) was under 31.6 nM. For the same compound, the viability, T/C [1] was 57.3%, the viability, T/C [13] was 30.7% and the viability, T/C [2] was 35.5%. It also gave a viability, T/C [14] of 23.1%, a viability, T/C [15] of 15.1% and a viability, T/C [16] of 7.07%. The viability, T/C [3] was 30.4%, the viability, T/C [17] was 31.3% and the viability, T/C [4] was 22.9%. It also gave a viability, T/C [18] of 24.6%, a viability, T/C [19] of 15% and a viability, T/C [20] of 6.35%. For the same compound, the viability, T/C [5] was 22.4%, the viability, T/C [21] was 27.7% and the viability, T/C [6] was 23.2%. The viability, T/C [22] was 21%, the viability, T/C [23] was 11.9% and the viability, T/C [24] was 7.02%. It also gave a viability, T/C [7] of 18.7%, a viability, T/C [25] of 21.1% and a viability, T/C [8] of 18.8%. It also gave a viability, T/C [26] of 22.5%, a viability, T/C [27] of 12.2% and a viability, T/C [28] of 5.25%. The viability, T/C [9] was 19.6%, the viability, T/C [29] was 22.5% and the viability, T/C [10] was 19.5%. The viability, T/C [30] was 15.9%, the viability, T/C [31] was 9.99% and the viability, T/C [32] was 5.08%. The viability, T/C [11] was 0.08%, the viability, T/C [33] was 0.12% and the viability, T/C [12] was 0.15%. For the same compound, the viability, T/C [34] was 0.11%, the viability, T/C [35] was 0.15% and the viability, T/C [36] was 0.14%.
Work on C#Cc1c(F)ccc2cc(O)cc(-c3ncc4c(N5CC6CCC(C5)N6)nc(OCC56CCCN5CC(F)C6)nc4c3F)c12 (stereo not drawn) + CN(C)c1ccc(Nc2c3ccc(NC(=O)CCN4CCCC4)cc3nc3cc(NC(=O)CCN4CCCC4)ccc23)cc1 yielded an IC50 (second compound 0.0316 µM) of over 10000 nM, an IC50 (second compound 0.1 µM) of over 10000 nM and an IC50 (second compound 0.316 µM) of over 10000 nM. For the same compound, the IC50 (second compound 1 µM) was over 10000 nM, the IC50 (second compound 3.16 µM) was over 10000 nM and the IC50 (second compound 10 µM) was 4690 nM. It also gave a viability, T/C [1] of 120%, a viability, T/C [13] of 98.2% and a viability, T/C [2] of 96%. The viability, T/C [14] was 98.1%, the viability, T/C [15] was 117% and the viability, T/C [16] was 121%. For the same compound, the viability, T/C [3] was 95.5%, the viability, T/C [17] was 106% and the viability, T/C [4] was 95.8%. For the same compound, the viability, T/C [18] was 98.4%, the viability, T/C [19] was 114% and the viability, T/C [20] was 116%. It also gave a viability, T/C [5] of 111%, a viability, T/C [21] of 105% and a viability, T/C [6] of 97.9%. For the same compound, the viability, T/C [22] was 106%, the viability, T/C [23] was 101% and the viability, T/C [24] was 118%. The viability, T/C [7] was 96.1%, the viability, T/C [25] was 97% and the viability, T/C [8] was 113%. For the same compound, the viability, T/C [26] was 97.8%, the viability, T/C [27] was 105% and the viability, T/C [28] was 105%. It also gave a viability, T/C [9] of 107%, a viability, T/C [29] of 112% and a viability, T/C [10] of 102%. For the same compound, the viability, T/C [30] was 110%, the viability, T/C [31] was 117% and the viability, T/C [32] was 101%. The viability, T/C [11] was 107%, the viability, T/C [33] was 116% and the viability, T/C [12] was 87.4%. The viability, T/C [34] was 94%, the viability, T/C [35] was 61.5% and the viability, T/C [36] was 24.5%.
C#Cc1c(F)ccc2cc(O)cc(-c3ncc4c(N5CC6CCC(C5)N6)nc(OCC56CCCN5CC(F)C6)nc4c3F)c12 (stereo not drawn) + Cc1[nH]c2ccc(F)cc2c1-c1nc2c3cccnc3c3ncccc3c2[nH]1 gave an IC50 (second compound 0.0316 µM) of over 10000 nM, an IC50 (second compound 0.1 µM) of over 10000 nM and an IC50 (second compound 0.316 µM) of over 10000 nM. It also gave an IC50 (second compound 1 µM) of 5600 nM, an IC50 (second compound 3.16 µM) of under 31.6 nM and an IC50 (second compound 10 µM) of under 31.6 nM. It also gave a viability, T/C [1] of 96.1%, a viability, T/C [13] of 95% and a viability, T/C [2] of 96.2%. The viability, T/C [14] was 90.4%, the viability, T/C [15] was 98% and the viability, T/C [16] was 118%. For the same compound, the viability, T/C [3] was 97.6%, the viability, T/C [17] was 108% and the viability, T/C [4] was 88.2%. It also gave a viability, T/C [18] of 102%, a viability, T/C [19] of 91.1% and a viability, T/C [20] of 108%. The viability, T/C [5] was 91%, the viability, T/C [21] was 96.1% and the viability, T/C [6] was 99.7%. The viability, T/C [22] was 86.6%, the viability, T/C [23] was 98.8% and the viability, T/C [24] was 81.1%. It also gave a viability, T/C [7] of 102%, a viability, T/C [25] of 90.4% and a viability, T/C [8] of 103%. For the same compound, the viability, T/C [26] was 93%, the viability, T/C [27] was 94.5% and the viability, T/C [28] was 4.87%. It also gave a viability, T/C [9] of 3.89%, a viability, T/C [29] of 4.3% and a viability, T/C [10] of 3.9%. For the same compound, the viability, T/C [30] was 3.3%, the viability, T/C [31] was 1.62% and the viability, T/C [32] was 0.11%. For the same compound, the viability, T/C [11] was 3%, the viability, T/C [33] was 12.8% and the viability, T/C [12] was 3.04%. For the same compound, the viability, T/C [34] was 2.02%, the viability, T/C [35] was 2.19% and the viability, T/C [36] was 0.17%.
